Assay results: US7981922B2, “Angiotensin I-converting enzyme (ACE) inhibitors” (University of Cape Town, priority 2005, dated 2011)

Columns and labels:
tACEdelta36NJ = tACEdelta36NJ (Homo sapiens, UniProt P12821); assay: ACE inhibitory activity, fluorometric determination of His-Leu, tACE; format: biochemical; details: for C domain-selectivity: C domain (tACE) versus N domain; for Ki: substrate Z-Phe-His-Leu, enzyme + inhibitor 3 hours at ambient temperature, read-out: Ki (tACE) ZPHL
Protocol: (§1) The ACE inhibitory activity (as tabulated in Table 1) was measured by the fluorometric determination of pthaldialdehyde-derivatised histidylleucine, a product of the enzyme reaction according to the method of Almquist et al.,^12 with some modifications. For tACEdelta36NJ and N-domain inhibition using Z-Phe-His-Leu as substrate: —10 μL of 0.05 mg/mL enzyme+120 μL inhibitor at ambient temperature for 3 hours. Inhibitor concentrations ranged from 2.0 μM to 500 μM. A 3.0 μL aliquot of this was assayed for enzyme activity using 30 μL of 1.0 mM […]. This was incubated (in triplicate) for 30 mins at 37° C. and stopped with 180 μL solution of 0.28N NaOH. To this alkalized mixture 12 μL of o-pthaldialdehyde (150 mM) was added and the mixture incubated for another 10 mins at room temperature. Reactions were stopped by adding 26 μL solution of 3N HCl. Fluorescence was measured at Ex=360 nm; Em=486 nm, 5×5 slit width along with a His-Leu standard calibration curve fluorometer: Varian Cary Eclipse plate reader.
(§2) All assays included enzyme incubated with buffer in the absence of inhibitor (i.e. 0 μM inhibitor concentration).

N-domain of ACE = N-domain of ACE (Homo sapiens, UniProt P12821); assay: ACE inhibitory activity, fluorometric determination of His-Leu, N-domain; format: biochemical; details: substrate Z-Phe-His-Leu; no inhibition up to 500 μM; read-out: Ki (N-dom) ZPHL
Protocol: as §1, §2

ACE C-domain = details: C-domain versus N-domain of ACE; cited from earlier work

Sequence of tACEdelta36NJ (P12821 642-1230 limits assumed): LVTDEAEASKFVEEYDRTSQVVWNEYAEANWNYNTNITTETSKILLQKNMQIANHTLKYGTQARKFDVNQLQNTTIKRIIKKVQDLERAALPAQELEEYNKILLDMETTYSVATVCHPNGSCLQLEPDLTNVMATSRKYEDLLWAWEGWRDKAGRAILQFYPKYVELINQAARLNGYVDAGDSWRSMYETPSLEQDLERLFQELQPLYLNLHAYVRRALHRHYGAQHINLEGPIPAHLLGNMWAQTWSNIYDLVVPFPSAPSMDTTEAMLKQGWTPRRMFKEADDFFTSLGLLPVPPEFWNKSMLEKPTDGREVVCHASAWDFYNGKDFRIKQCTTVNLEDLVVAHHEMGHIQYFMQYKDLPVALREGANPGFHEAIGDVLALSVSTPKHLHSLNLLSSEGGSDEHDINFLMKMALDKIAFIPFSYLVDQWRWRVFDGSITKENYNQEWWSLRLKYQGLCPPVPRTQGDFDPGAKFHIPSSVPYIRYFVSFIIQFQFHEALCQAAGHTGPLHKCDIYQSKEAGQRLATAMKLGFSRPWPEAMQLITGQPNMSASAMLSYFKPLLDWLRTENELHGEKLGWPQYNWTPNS
Sequence of N-domain of ACE (P12821 40-624 limits assumed): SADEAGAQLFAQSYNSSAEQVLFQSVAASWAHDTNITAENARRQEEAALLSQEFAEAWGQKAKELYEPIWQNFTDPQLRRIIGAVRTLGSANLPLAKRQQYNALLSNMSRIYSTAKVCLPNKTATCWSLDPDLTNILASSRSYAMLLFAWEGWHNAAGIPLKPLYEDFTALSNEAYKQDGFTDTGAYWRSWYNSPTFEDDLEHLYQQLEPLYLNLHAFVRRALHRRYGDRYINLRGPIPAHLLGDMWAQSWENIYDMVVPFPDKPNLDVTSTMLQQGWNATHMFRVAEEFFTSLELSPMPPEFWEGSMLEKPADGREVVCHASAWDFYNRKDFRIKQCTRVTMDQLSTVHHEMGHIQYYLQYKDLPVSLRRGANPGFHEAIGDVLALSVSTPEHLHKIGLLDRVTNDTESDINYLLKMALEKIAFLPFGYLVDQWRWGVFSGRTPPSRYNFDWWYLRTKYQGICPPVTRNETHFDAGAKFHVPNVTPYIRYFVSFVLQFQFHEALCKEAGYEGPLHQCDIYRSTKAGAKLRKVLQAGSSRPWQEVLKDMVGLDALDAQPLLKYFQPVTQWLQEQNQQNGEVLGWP

NCCCC[C@H](N[C@@H](CCc1ccccc1)C(=O)O)C(=O)N[C@@H](Cc1c[nH]c2ccccc12)C(=O)O [Compound 6]
C domain-selectivity (tACEdelta36NJ): > 19 fold
Ki (tACEdelta36NJ): 26.3 µM
Ki (N-domain of ACE): > 500 µM

NCCCC[C@H](N[C@H](CCc1ccccc1)C(=O)O)C(=O)N[C@@H](Cc1c[nH]c2ccccc12)C(=O)O [Compound 6a]
C domain-selectivity (tACEdelta36NJ): > 72 fold
Ki (tACEdelta36NJ): 7 µM
Ki (N-domain of ACE): > 500 µM

O=C(N[C@@H](Cc1ccccc1)P(=O)(O)C1CCCC1C(=O)N[C@@H](Cc1c[nH]c2ccccc12)C(=O)O)OCc1ccccc1 (stereo partly shown) [RXP A380]
C-domain selective (ACE C-domain): ~3000 fold
